Calls of active or inactive are those of the source. The rule behind the calls is not given here.
Tests used:
[1] = biological target: T1, Tyrosine-protein kinase JAK2 (Homo sapiens, UniProt O60674); experiment: Inhibition of JAK2 (unknown origin) preincubated for 30 mins followed by ATP addition measured after 30 mins by HTRF assay
[2] = biological target: Cyclin-dependent kinase 4 (Homo sapiens) (UniProt P11802); experiment: Inhibition of CDK4 (unknown origin) at 100 uM preincubated for 20 mins followed by 33P-ATP addition measured after 2 hrs by HotSpot kinase assay relative to control; conditions: time 140.0 min
[3] = biological target: Tyrosine-protein kinase BTK (Homo sapiens) (UniProt Q06187); experiment: Inhibition of BTK (unknown origin) at 100 uM preincubated for 20 mins followed by 33P-ATP addition measured after 2 hrs by HotSpot kinase assay relative to control; conditions: time 140.0 min
Tyrosine-protein kinase BTK (Homo sapiens), sequence (Q06187 whole entry, canonical isoform): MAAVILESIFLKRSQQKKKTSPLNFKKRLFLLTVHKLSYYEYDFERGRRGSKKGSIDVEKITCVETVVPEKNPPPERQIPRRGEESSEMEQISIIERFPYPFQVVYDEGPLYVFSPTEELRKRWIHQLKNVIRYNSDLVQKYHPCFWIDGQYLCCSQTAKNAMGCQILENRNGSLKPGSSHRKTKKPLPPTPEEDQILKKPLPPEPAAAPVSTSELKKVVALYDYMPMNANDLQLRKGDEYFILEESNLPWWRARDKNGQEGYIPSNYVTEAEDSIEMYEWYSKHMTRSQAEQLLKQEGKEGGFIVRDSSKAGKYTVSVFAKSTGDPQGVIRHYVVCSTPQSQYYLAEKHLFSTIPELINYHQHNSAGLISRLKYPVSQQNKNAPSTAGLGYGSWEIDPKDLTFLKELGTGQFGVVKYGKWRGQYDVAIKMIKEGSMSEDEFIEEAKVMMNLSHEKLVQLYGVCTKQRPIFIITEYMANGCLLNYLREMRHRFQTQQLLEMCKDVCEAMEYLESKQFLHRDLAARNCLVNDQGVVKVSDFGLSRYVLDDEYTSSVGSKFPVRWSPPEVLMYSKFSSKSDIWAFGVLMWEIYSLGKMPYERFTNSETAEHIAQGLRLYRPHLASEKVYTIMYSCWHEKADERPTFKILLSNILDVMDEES

[4] = biological target: Phosphatidylinositol 4,5-bisphosphate 3-kinase catalytic subunit gamma isoform (Homo sapiens) (UniProt P48736); experiment: Inhibition of PI3Kg (unknown origin) at 100 uM preincubated for 20 mins followed by 33P-ATP addition measured after 2 hrs by HotSpot kinase assay relative to control; conditions: time 140.0 min
[5] = biological target: Phosphatidylinositol 4,5-bisphosphate 3-kinase catalytic subunit alpha isoform (Homo sapiens) (UniProt P42336); experiment: Inhibition of PI3Ka (unknown origin) at 100 uM preincubated for 20 mins followed by 33P-ATP addition measured after 2 hrs by HotSpot kinase assay relative to control; conditions: time 140.0 min
Phosphatidylinositol 4,5-bisphosphate 3-kinase catalytic subunit alpha isoform (Homo sapiens), sequence (P42336 whole entry, canonical isoform): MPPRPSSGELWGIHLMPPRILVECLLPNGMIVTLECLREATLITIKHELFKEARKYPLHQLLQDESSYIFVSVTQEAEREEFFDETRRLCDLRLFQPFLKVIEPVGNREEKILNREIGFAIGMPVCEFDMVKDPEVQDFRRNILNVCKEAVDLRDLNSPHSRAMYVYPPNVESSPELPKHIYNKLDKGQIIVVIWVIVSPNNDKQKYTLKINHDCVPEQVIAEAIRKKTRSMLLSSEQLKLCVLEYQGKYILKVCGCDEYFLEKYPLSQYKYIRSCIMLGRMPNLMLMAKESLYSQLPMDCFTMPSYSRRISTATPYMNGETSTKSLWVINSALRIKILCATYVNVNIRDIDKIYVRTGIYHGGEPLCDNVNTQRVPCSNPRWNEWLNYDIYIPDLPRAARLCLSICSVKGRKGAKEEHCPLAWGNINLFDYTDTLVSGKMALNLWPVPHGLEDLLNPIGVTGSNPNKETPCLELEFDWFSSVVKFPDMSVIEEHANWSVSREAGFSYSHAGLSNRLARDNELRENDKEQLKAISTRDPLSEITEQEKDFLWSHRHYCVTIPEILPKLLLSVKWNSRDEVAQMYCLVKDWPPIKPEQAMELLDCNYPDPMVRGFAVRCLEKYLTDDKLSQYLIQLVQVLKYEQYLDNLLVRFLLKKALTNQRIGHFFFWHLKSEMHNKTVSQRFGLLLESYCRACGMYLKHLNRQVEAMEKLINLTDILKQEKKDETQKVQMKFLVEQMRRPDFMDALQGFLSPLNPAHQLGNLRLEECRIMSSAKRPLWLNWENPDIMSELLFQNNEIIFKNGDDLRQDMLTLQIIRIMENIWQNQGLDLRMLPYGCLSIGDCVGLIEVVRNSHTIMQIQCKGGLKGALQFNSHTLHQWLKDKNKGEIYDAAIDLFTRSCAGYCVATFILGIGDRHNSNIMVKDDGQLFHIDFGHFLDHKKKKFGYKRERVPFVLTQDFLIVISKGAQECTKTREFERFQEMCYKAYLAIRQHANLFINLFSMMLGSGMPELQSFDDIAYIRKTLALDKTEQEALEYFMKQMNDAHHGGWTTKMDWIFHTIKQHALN

[6] = biological target: Cyclin-dependent kinase 6 (Homo sapiens) (UniProt Q00534); experiment: Inhibition of CDK6 (unknown origin) at 100 uM preincubated for 20 mins followed by 33P-ATP addition measured after 2 hrs by HotSpot kinase assay relative to control; conditions: time 140.0 min
Cyclin-dependent kinase 6 (Homo sapiens), sequence (Q00534 whole entry): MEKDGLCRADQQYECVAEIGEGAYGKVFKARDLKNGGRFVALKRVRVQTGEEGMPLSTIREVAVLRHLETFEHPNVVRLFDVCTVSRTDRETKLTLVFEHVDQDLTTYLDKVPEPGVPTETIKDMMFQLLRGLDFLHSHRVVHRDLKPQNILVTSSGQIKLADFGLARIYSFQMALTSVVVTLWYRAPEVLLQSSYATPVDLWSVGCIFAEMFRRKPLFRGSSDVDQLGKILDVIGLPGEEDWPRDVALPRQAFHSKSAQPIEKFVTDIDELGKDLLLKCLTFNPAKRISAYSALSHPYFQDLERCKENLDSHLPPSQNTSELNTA

[7] = biological target: Tyrosine-protein kinase SYK (Homo sapiens) (UniProt P43405); experiment: Inhibition of SYK (unknown origin) at 100 uM preincubated for 20 mins followed by 33P-ATP addition measured after 2 hrs by HotSpot kinase assay relative to control; conditions: time 140.0 min
[8] = tested on: Jurkat; experiment: Cytotoxicity against human Jurkat cells assessed as cell growth inhibition at 0.02 to 1.3 uM by MTT assay; format: functional, cell-based; conditions: dose 0.02-1.3 µM, time lower 24.0 hrs, time upper […], TDE = time-dependent effect
[9] = biological target: High affinity nerve growth factor receptor (Homo sapiens) (UniProt P04629); experiment: Inhibition of TRKa (unknown origin) at 100 uM preincubated for 20 mins followed by 33P-ATP addition measured after 2 hrs by HotSpot kinase assay relative to control; conditions: time 140.0 min
High affinity nerve growth factor receptor (Homo sapiens), sequence (P04629 33-796 limits assumed): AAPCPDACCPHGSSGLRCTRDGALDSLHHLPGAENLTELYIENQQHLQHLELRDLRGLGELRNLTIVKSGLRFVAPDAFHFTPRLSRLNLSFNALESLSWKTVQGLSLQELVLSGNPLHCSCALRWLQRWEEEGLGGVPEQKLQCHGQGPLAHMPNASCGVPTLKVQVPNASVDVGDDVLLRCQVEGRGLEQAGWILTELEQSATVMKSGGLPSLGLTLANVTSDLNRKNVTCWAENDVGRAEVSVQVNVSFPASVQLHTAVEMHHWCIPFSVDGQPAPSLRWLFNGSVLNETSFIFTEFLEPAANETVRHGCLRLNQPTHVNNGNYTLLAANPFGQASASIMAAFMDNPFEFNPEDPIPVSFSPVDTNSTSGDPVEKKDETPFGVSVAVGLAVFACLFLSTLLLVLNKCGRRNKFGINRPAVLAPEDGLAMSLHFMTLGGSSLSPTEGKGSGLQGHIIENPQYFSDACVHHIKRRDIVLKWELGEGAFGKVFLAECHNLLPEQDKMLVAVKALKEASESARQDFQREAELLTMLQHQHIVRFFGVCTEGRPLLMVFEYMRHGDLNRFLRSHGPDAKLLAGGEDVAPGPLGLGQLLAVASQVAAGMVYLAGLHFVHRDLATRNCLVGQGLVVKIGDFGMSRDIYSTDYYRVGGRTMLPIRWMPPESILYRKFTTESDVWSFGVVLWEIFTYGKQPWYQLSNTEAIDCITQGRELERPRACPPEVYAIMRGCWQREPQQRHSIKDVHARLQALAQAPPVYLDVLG

[10] = biological target: T1, Tyrosine-protein kinase JAK2; experiment: Inhibition of JAK2 (unknown origin) at 100 uM preincubated for 20 mins followed by 33P-ATP addition measured after 2 hrs by HotSpot kinase assay relative to control; conditions: time 140.0 min
[11] = tested on: U-937; experiment: Cytotoxicity against human U-937 cells assessed as cell growth inhibition at 1.6 to 3.6 uM by MTT assay; format: functional, cell-based; conditions: dose 1.6-3.6 µM, time lower 24.0 hrs, time upper […], TDE = time-dependent effect
[12] = tested on: NAMALVA; experiment: Cytotoxicity against human NAMALVA cells assessed as cell growth inhibition at 0.1 to 10.5 uM by MTT assay; format: functional, cell-based; conditions: dose 0.1-10.5 µM, time lower 24.0 hrs, time upper […], TDE = time-dependent effect
[13] = biological target: Tyrosine-protein kinase JAK3 (Homo sapiens) (UniProt P52333); experiment: Inhibition of JAK3 (unknown origin) at 100 uM preincubated for 20 mins followed by 33P-ATP addition measured after 2 hrs by HotSpot kinase assay relative to control; conditions: time 140.0 min
[14] = biological target: Phosphatidylinositol 4,5-bisphosphate 3-kinase catalytic subunit beta isoform (Homo sapiens) (UniProt P42338); experiment: Inhibition of PI3Kb (unknown origin) at 100 uM preincubated for 20 mins followed by 33P-ATP addition measured after 2 hrs by HotSpot kinase assay relative to control; conditions: time 140.0 min
Phosphatidylinositol 4,5-bisphosphate 3-kinase catalytic subunit beta isoform (Homo sapiens), sequence (P42338 whole entry, looked up, canonical isoform): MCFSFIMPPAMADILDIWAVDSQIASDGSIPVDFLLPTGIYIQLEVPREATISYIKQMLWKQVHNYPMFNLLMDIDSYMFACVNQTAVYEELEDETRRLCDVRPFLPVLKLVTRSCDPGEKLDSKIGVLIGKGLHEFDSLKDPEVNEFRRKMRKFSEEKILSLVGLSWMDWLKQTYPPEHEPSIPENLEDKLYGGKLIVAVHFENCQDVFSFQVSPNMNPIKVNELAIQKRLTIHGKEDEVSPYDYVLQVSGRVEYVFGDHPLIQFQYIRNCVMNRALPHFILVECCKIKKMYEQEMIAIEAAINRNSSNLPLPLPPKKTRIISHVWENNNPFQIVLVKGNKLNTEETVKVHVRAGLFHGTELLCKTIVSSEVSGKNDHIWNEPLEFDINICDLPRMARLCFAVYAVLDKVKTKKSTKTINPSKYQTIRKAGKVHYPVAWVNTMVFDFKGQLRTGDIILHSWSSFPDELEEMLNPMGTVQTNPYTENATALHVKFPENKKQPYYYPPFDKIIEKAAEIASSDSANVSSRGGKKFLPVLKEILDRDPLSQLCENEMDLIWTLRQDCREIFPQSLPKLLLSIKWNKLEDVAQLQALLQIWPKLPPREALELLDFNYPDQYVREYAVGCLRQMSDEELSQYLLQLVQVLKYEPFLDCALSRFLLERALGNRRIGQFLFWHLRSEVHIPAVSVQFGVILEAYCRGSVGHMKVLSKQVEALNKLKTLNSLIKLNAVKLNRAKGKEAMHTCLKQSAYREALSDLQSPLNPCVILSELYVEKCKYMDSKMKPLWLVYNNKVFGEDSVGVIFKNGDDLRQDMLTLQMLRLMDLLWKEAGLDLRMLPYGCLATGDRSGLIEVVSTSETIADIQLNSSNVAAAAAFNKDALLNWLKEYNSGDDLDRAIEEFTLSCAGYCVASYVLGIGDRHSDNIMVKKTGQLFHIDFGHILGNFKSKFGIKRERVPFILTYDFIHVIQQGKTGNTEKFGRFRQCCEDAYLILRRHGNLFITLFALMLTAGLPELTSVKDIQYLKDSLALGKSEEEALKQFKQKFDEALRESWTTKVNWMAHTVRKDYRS

[15] = biological target: Tyrosine-protein kinase JAK1 (Homo sapiens) (UniProt P23458); experiment: Inhibition of JAK1 (unknown origin) at 100 uM preincubated for 20 mins followed by 33P-ATP addition measured after 2 hrs by HotSpot kinase assay relative to control; conditions: time 140.0 min
[16] = tested on: Jurkat; experiment: Cytotoxicity against human Jurkat cells assessed as cell growth inhibition at 0.05 to 1.2 uM by MTT assay; format: functional, cell-based; conditions: dose 0.05-1.2 µM, time lower 24.0 hrs, time upper […], TDE = time-dependent effect
[17] = tested on: U-937; experiment: Cytotoxicity against human U-937 cells assessed as cell growth inhibition at 0.7 to 2.5 uM by MTT assay; format: functional, cell-based; conditions: dose 0.7-2.5 µM, time lower 24.0 hrs, time upper […], TDE = time-dependent effect
[18] = tested on: Jurkat; experiment: Induction of apoptosis in human Jurkat cells at IC50 measured after 48 hrs by flow cytometry; format: functional, cell-based

T1 sequence (O60674 whole entry): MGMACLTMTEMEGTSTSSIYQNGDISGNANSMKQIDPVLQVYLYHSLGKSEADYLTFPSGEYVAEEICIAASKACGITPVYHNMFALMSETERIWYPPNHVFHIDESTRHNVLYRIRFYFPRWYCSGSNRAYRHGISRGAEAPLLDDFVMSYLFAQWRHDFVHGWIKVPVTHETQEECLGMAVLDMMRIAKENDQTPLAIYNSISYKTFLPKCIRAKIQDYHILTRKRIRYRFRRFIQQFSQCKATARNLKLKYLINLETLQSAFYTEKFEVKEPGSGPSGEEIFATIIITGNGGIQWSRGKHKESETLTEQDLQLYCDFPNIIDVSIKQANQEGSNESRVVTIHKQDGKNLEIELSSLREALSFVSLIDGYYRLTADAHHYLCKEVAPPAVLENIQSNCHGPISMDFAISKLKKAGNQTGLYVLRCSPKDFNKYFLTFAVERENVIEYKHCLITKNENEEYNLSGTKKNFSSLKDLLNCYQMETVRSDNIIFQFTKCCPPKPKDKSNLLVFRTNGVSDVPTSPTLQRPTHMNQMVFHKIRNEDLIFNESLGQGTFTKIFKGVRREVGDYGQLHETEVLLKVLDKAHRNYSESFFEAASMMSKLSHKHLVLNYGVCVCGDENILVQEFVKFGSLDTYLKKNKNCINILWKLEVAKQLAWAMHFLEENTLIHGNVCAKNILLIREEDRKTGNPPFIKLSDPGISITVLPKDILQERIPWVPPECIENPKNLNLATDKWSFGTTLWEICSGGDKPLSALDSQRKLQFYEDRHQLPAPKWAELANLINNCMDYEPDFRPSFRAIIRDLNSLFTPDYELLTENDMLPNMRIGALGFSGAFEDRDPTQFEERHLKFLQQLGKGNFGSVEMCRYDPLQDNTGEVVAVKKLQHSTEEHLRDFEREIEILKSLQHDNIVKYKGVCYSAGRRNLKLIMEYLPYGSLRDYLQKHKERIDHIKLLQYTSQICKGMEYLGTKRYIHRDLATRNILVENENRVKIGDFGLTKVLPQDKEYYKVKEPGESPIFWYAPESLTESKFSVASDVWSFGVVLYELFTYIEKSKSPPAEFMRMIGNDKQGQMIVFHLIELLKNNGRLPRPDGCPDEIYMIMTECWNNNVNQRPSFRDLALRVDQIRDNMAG

Compound: O=C(NO)c1ccc(Cn2cnc3c(Nc4ccc(F)c(Cl)c4)ncnc32)cc1
- IC50 [1]: 34.6 µM
- inhibition [2]: 73.2%
- inhibition [3]: 99.2%
- inhibition [4]: 44.2%
- inhibition [5]: 29.8%
- inhibition [6]: 38.6%
- inhibition [7]: 71.2%
- inhibition [8]: Tde
- inhibition [9]: 99.9%
- inhibition [10]: 99.5%
- inhibition [11]: Tde
- inhibition [12]: Tde
- inhibition [13]: 94.5%
- inhibition [14]: 62%
- inhibition [15]: 63.2%

Compound: COc1ccc(Nc2ncnc3c2ncn3Cc2ccc(C(=O)NO)cc2)cc1
- inhibition [16]: Tde
- inhibition [17]: Tde
- Activity [18]: Active

— ChEMBL document CHEMBL5532651, “HDAC specificity and kinase off-targeting by purine-benzohydroxamate anti-hematological tumor agents” (Eur J Med Chem, 2024)
